Legend:
[1] = Toxicity against brine shrimp larvae assessed as mortality at 500 ug/mL after 24 hrs by binocular microscopic analysis relative to control; format: organism-based; conditions: artemia salina, in vivo
T47D = experiment: Growth inhibition of human T47D cells at 10 uM after 48 hrs by coulter counter analysis relative to control; format: functional; conditions: read-out: GI
MDA-MB-231 = experiment: Growth inhibition of human MDA-MB-231 cells at 10 uM after 48 hrs by coulter counter analysis relative to control; format: functional; conditions: MDA-MB-231, 48 h, read-out: GI
MCF7 = experiment: Growth inhibition of human MCF7 cells at 10 uM after 48 hrs by coulter counter analysis relative to control; format: functional; conditions: MCF7, 48 h, read-out: GI
PC-3 = experiment: Growth inhibition of human PC3 cells at 10 uM after 48 hrs by coulter counter analysis relative to control; format: functional; conditions: PC-3, 48 h, read-out: GI
TK-10 = experiment: Growth inhibition of human TK10 cells at 10 uM after 48 hrs by coulter counter analysis relative to control; format: functional; conditions: TK-10, 48 h, read-out: GI
ACHN = experiment: Growth inhibition of human ACHN cells at 10 uM after 48 hrs by coulter counter analysis relative to control; format: functional; conditions: read-out: GI
A498 = experiment: Growth inhibition of human A498 cells at 10 uM after 48 hrs by coulter counter analysis relative to control; format: functional; conditions: A498, 48 h, read-out: GI
SK-OV-3 = experiment: Growth inhibition of human SKOV3 cells at 10 uM after 48 hrs by coulter counter analysis relative to control; format: functional; conditions: SK-OV-3, 48 h, read-out: GI
OVCAR-8 = experiment: Growth inhibition of human OVCAR8 cells at 10 uM after 48 hrs by coulter counter analysis relative to control; format: functional; conditions: OVCAR-8, 48 h, read-out: GI
OVCAR-3 = experiment: Growth inhibition of human OVCAR3 cells at 10 uM after 48 hrs by coulter counter analysis relative to control; format: functional; conditions: OVCAR-3, 48 h, read-out: GI
UACC-257 = experiment: Growth inhibition of human UACC257 cells at 10 uM after 48 hrs by coulter counter analysis relative to control; format: functional; conditions: UACC-257, 48 h, read-out: GI
LOX IMVI = experiment: Growth inhibition of human LOXIMVI cells at 10 uM after 48 hrs by coulter counter analysis relative to control; format: functional; conditions: read-out: GI
SNB-75 = experiment: Growth inhibition of human SNB75 cells at 10 uM after 48 hrs by coulter counter analysis relative to control; format: functional; conditions: SNB-75, 48 h, read-out: GI
SF-539 = experiment: Growth inhibition of human SF539 cells at 10 uM after 48 hrs by coulter counter analysis relative to control; format: functional; conditions: SF-539, 48 h, read-out: GI
KM12 = experiment: Growth inhibition of human KM12 cells at 10 uM after 48 hrs by coulter counter analysis relative to control; format: functional; conditions: KM12, 48 h, read-out: GI
HT-29 = experiment: Growth inhibition of human HT-29 cells at 10 uM after 48 hrs by coulter counter analysis relative to control; format: functional; conditions: HT-29, 48 h, read-out: GI
HCT-116 = experiment: Growth inhibition of human HCT116 cells at 10 uM after 48 hrs by coulter counter analysis relative to control; format: functional; conditions: HCT-116, 48 h, read-out: GI
COLO 205 = experiment: Growth inhibition of human COLO205 cells at 10 uM after 48 hrs by coulter counter analysis relative to control; format: functional; conditions: COLO 205, 48 h, read-out: GI
NCI-H522 = experiment: Growth inhibition of human NCI-H522 cells at 10 uM after 48 hrs by coulter counter analysis relative to control; format: functional; conditions: NCI-H522, 48 h, read-out: GI
NCI-H460 = experiment: Growth inhibition of human NCI-H460 cells at 10 uM after 48 hrs by coulter counter analysis relative to control; format: functional; conditions: NCI-H460, 48 h, read-out: GI
NCI-H226 = experiment: Growth inhibition of human NCI-H226 cells at 10 uM after 48 hrs by coulter counter analysis relative to control; format: functional; conditions: NCI-H226, 48 h, read-out: GI
NCI-H23 = experiment: Growth inhibition of human NCI-H23 cells at 10 uM after 48 hrs by coulter counter analysis relative to control; format: functional; conditions: NCI-H23, 48 h, read-out: GI
[2] = Growth inhibition of human EKVX cells at 10 uM after 48 hrs by coulter counter analysis relative to control; format: functional; conditions: read-out: GI
HOP-62 = experiment: Growth inhibition of human HOP62 cells at 10 uM after 48 hrs by coulter counter analysis relative to control; format: functional; conditions: HOP-62, 48 h, read-out: GI
K562 = experiment: Growth inhibition of human K562 cells at 10 uM after 48 hrs by coulter counter analysis relative to control; format: functional; conditions: K562, 48 h, read-out: GI
CCRF-CEM = experiment: Growth inhibition of human CCRF-CEM cells at 10 uM after 48 hrs by coulter counter analysis relative to control; format: functional; conditions: read-out: GI
Aspergillus fumigatus = experiment: Antifungal activity against Aspergillus fumigatus Af293 at 5 mg/mL after 48 hrs; format: functional; conditions: Af293, 48 h, read-out: DIZ
Candida albicans = experiment: Antifungal activity against Candida albicans at 5 mg/mL after 48 hrs; format: functional; conditions: read-out: DIZ
Staphylococcus aureus = experiment: Antibacterial activity against Staphylococcus aureus at 5 mg/mL after 24 hrs; format: functional; conditions: read-out: DIZ
Bacillus cereus = experiment: Antibacterial activity against Bacillus cereus at 5 mg/mL after 24 hrs; format: functional; conditions: read-out: DIZ

## CCOC(=O)C1C(=O)N=C2SC(S(N)(=O)=O)=NN2C1c1ccc(N(C)C)cc1 (stereo not drawn)
[1]
  mortality at 24 h, 500 ug/mL: 93.3%
T47D
  inhibition of growth at 10 µM: < 10%
MDA-MB-231
  inhibition of growth at 10 µM: 34.6%
MCF7
  inhibition of growth at 10 µM: 10.2%
PC-3
  inhibition of growth at 10 µM: 11.4%
TK-10
  inhibition of growth at 10 µM: < 10%
ACHN
  inhibition of growth at 10 µM: < 10%
A498
  inhibition of growth at 10 µM: 16.5%
SK-OV-3
  inhibition of growth at 10 µM: < 10%
OVCAR-8
  inhibition of growth at 10 µM: < 10%
OVCAR-3
  inhibition of growth at 10 µM: < 10%
UACC-257
  inhibition of growth at 10 µM: < 10%
LOX IMVI
  inhibition of growth at 10 µM: 11.7%
SNB-75
  inhibition of growth at 10 µM: 10.1%
SF-539
  inhibition of growth at 10 µM: < 10%
KM12
  inhibition of growth at 10 µM: < 10%
HT-29
  inhibition of growth at 10 µM: < 10%
HCT-116
  inhibition of growth at 10 µM: < 10%
COLO 205
  inhibition of growth at 10 µM: < 10%
NCI-H522
  inhibition of growth at 10 µM: 19.3%
NCI-H460
  inhibition of growth at 10 µM: < 10%
NCI-H226
  inhibition of growth at 10 µM: < 10%
NCI-H23
  inhibition of growth at 10 µM: < 10%
[2]
  inhibition of growth at 10 µM: 12.2%
HOP-62
  inhibition of growth at 10 µM: < 10%
K562
  inhibition of growth at 10 µM: < 10%
CCRF-CEM
  inhibition of growth at 10 µM: < 10%
Aspergillus fumigatus
  zone of inhibition at 5000 µg/mL: 4 mm
Candida albicans
  zone of inhibition at 5000 µg/mL: 10 mm
Staphylococcus aureus
  zone of inhibition at 5000 µg/mL: 5 mm
Bacillus cereus
  zone of inhibition at 5000 µg/mL: 5 mm

## N#Cc1cnc2sc(S(N)(=O)=O)nn2c1=O
[1]
  mortality at 24 h, 500 ug/mL: 83.3%
T47D
  inhibition of growth at 10 µM: < 10%
MDA-MB-231
  inhibition of growth at 10 µM: < 10%
MCF7
  inhibition of growth at 10 µM: < 10%
PC-3
  inhibition of growth at 10 µM: < 10%
TK-10
  inhibition of growth at 10 µM: < 10%
ACHN
  inhibition of growth at 10 µM: < 10%
A498
  inhibition of growth at 10 µM: 34.2%
SK-OV-3
  inhibition of growth at 10 µM: < 10%
OVCAR-8
  inhibition of growth at 10 µM: < 10%
OVCAR-3
  inhibition of growth at 10 µM: < 10%
UACC-257
  inhibition of growth at 10 µM: < 10%
LOX IMVI
  inhibition of growth at 10 µM: 10.7%
SNB-75
  inhibition of growth at 10 µM: 10.3%
SF-539
  inhibition of growth at 10 µM: < 10%
KM12
  inhibition of growth at 10 µM: < 10%
HT-29
  inhibition of growth at 10 µM: < 10%
HCT-116
  inhibition of growth at 10 µM: < 10%
COLO 205
  inhibition of growth at 10 µM: < 10%
NCI-H522
  inhibition of growth at 10 µM: < 10%
NCI-H460
  inhibition of growth at 10 µM: < 10%
NCI-H226
  inhibition of growth at 10 µM: < 10%
NCI-H23
  inhibition of growth at 10 µM: < 10%
[2]
  inhibition of growth at 10 µM: < 10%
HOP-62
  inhibition of growth at 10 µM: < 10%
K562
  inhibition of growth at 10 µM: < 10%
CCRF-CEM
  inhibition of growth at 10 µM: < 10%
Aspergillus fumigatus
  zone of inhibition at 5000 µg/mL: < 2 mm
Candida albicans
  zone of inhibition at 5000 µg/mL: 4 mm
Staphylococcus aureus
  zone of inhibition at 5000 µg/mL: 18 mm
Bacillus cereus
  zone of inhibition at 5000 µg/mL: 2 mm

## N#Cc1cnc2sc(S(N)(=O)=O)nn2c1=N
[1]
  mortality at 24 h, 500 ug/mL: 90%
T47D
  inhibition of growth at 10 µM: < 10%
MDA-MB-231
  inhibition of growth at 10 µM: 12%
MCF7
  inhibition of growth at 10 µM: < 10%
PC-3
  inhibition of growth at 10 µM: < 10%
TK-10
  inhibition of growth at 10 µM: < 10%
ACHN
  inhibition of growth at 10 µM: < 10%
A498
  inhibition of growth at 10 µM: 14.9%
SK-OV-3
  inhibition of growth at 10 µM: < 10%
OVCAR-8
  inhibition of growth at 10 µM: < 10%
OVCAR-3
  inhibition of growth at 10 µM: < 10%
UACC-257
  inhibition of growth at 10 µM: < 10%
LOX IMVI
  inhibition of growth at 10 µM: 15.1%
SNB-75
  inhibition of growth at 10 µM: < 10%
SF-539
  inhibition of growth at 10 µM: < 10%
KM12
  inhibition of growth at 10 µM: < 10%
HT-29
  inhibition of growth at 10 µM: < 10%
HCT-116
  inhibition of growth at 10 µM: < 10%
COLO 205
  inhibition of growth at 10 µM: < 10%
NCI-H522
  inhibition of growth at 10 µM: < 10%
NCI-H460
  inhibition of growth at 10 µM: < 10%
NCI-H226
  inhibition of growth at 10 µM: < 10%
NCI-H23
  inhibition of growth at 10 µM: < 10%
[2]
  inhibition of growth at 10 µM: < 10%
HOP-62
  inhibition of growth at 10 µM: 10.7%
K562
  inhibition of growth at 10 µM: < 10%
CCRF-CEM
  inhibition of growth at 10 µM: < 10%
Aspergillus fumigatus
  zone of inhibition at 5000 µg/mL: < 2 mm
Candida albicans
  zone of inhibition at 5000 µg/mL: < 2 mm
Staphylococcus aureus
  zone of inhibition at 5000 µg/mL: < 2 mm
Bacillus cereus
  zone of inhibition at 5000 µg/mL: < 2 mm

Reference: ChEMBL document CHEMBL2375302, “Synthesis, antimicrobial, antiquorum-sensing, antitumor and cytotoxic activities of new series of fused [1,3,4]thiadiazoles” (Eur J Med Chem, 2013)
